Values quoted from earlier work in patent publication US8962638B2, “Piperidine inhibitors of janus kinase 3” (Auspex Pharmaceuticals, Inc., priority 2009, dated 2015).

Assays:
[1] = humans, 14C labeled CP-690550, oral

Question: Which results are given for C[C@@H]1CCN(C(=O)CC#N)C[C@@H]1N(C)c1ncnc2[nH]ccc12 [CP-690550, 4-methyl-3-(methyl-7H-pyrrolo[2,3-d]pyrimidin-4-ylamino)-beta-oxo-(3R,4R)-1-piperidinepropanenitrile]?
Answer: mean terminal phase half-life of unchanged CP-690550 [1]: approximately 3.2 hours; renal excretion of unchanged drug, share of clearance (in vivo): ~30%; non-renal share of clearance (via hepatic metabolism by CYP3A4/5 and CYP2C19): approximately 70%
